Assay results reported in patent US20100234377A1 (priority 2007, published 2010).
Like-named read-outs stand apart in the source and are kept apart here.

Assays:
[1] = target: T1, human Prostaglandin D Synthase (GST2) (Homo sapiens, UniProt O60760); assay: Homogeneous biochemical assay of human Prostaglandin D Synthase (GST2) based on its glutathion-S-transferase activity (GSH conjugation to monochlorobimane, fluorescence)
T1 construct: the open reading frame of human Prostaglandin D Synthase was amplified from cDNA; made in house; host or cells: E. coli TOP10F'
T1 sequence (O60760 whole entry): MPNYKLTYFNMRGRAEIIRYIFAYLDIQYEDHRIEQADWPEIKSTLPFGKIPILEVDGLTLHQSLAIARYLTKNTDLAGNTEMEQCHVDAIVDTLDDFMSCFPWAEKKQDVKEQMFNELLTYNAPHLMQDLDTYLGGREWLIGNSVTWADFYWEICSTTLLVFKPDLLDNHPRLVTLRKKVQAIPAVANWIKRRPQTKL
Procedure, shortened: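 N-His-tagged human PGD synthase from E. coli, assayed via its GST activity: GSH conjugation to monochlorobimane in 50 mM MES/KOH pH 6.1, 0.7 mM GSH, 2 mM MgCl2. Compounds at final picomolar to triple-digit micromolar concentrations.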

[2] = Mouse microsomal metabolism assay; format: in vitro ADME; details: mouse hepatic microsomes, 37° C., phosphate buffer pH 7.4, NADPH regenerating system; for half-life: liver microsomes, read-out: Mouse t½
Experimental: Selected GST2 Inhibitors from Formula I Assessed in Mouse Microsomal Metabolism Assay
Selected GST2 inhibitors of General Formula (I) were screened in a mouse hepatic microsome assay to determine microsomal metabolism.
Test Articles were prepared in 50% acetonitrile.
Mouse hepatic microsomes supplied by BD GenTest Inc or an equivalent reputable supplier.
Test Articles are added to incubation plates containing phosphate buffer pH 7.4 and microsomes at a suitable protein concentration. Incubation plates are placed on a shaking water bath at 37° C. for 5 minutes pre-incubation. An aliquot of the reaction mixture is taken and added to acetonitrile (3:1). This is designated time […]. NADPH regenerating system in phosphate buffer pH 7.4 is added to initiate reactions. Aliquots from the incubation wells are taken at a number of time points and added to acetonitrile. Control incubations contained no microsomes or compounds with known microsomal stabilities. Samples were subject to centrifugation to remove denatured protein and the supernatants were analysed by LCMS.
Half lives were calculated from the log vs time transformed data according to the following equation: […]
Where λ is the slope of the linear regression line under first order (Test Article concentration <Km) conditions.

[3] = given beside the compound name in Examples 1 to 167, read-out: Potency Range (GST2 IC50)
[4] = Table 2, comparative examples, read-out: GST2 inhibition IC50

| IC50 [1, 3] [µM] | half-life [2] [min] | Compound | other results |
| --- | --- | --- | --- |
| 0.101 to 1 | > 60 | O=C(Nc1ccc(OC(F)(F)F)cc1)N1CCN(C(=O)c2cccc(F)n2)CC1 [Compound 21, 4-(6-Fluoro-pyridine-2-carbonyl)-piperazine-1-carboxylic acid (4-trifluoromethoxy-phenyl)-amide] | – |
| 0.101 to 1 | > 60 | O=C(Nc1nc2cc(Cl)ccc2o1)N1CCN(C(=O)c2cccc(F)c2)CC1 [Compound 39, 4-(3-Fluoro-benzoyl)-piperazine-1-carboxylic acid (5-chloro-benzooxazol-2-yl)-amide] | – |
| 0.011 to 0.1 | > 60 | CC(C)NC(=O)N1CCN(c2ccc(NC(=O)N3CCN(C(=O)c4cccc(F)c4)CC3)cc2F)CC1 [Compound 52, 4-(3-fluorobenzoyl)-N-{3-fluoro-4-[4-(isopropylcarbamoyl)piperazin-1-yl]phenyl}piperazine-1-carboxamide] | – |
| 0.101 to 1 | 58.7 | CN1CCN(c2ccc(NC(=O)N3CCN(C(=O)c4cccc(F)c4)CC3)cc2F)CC1 [Compound 60, 4-(3-Fluoro-benzoyl)-piperazine-1-carboxylic acid [3-fluoro-4-(4-methyl-piperazin-1-yl)-phenyl]-amide] | – |
| 0.101 to 1 | > 60 | O=C(Nc1ccc(Cl)nc1)N1CCN(C(=O)c2cccc(F)c2)CC1 [Compound 63, 4-(3-Fluoro-benzoyl)-piperazine-1-carboxylic acid (6-chloro-pyridin-3-yl)-amide] | – |
| 0.101 to 1 | > 60 | O=C(Nc1ccc(C(=O)N2CCOCC2)cc1)N1CCN(C(=O)c2cccc(F)c2)CC1 [Compound 101, 4-(3-Fluoro-benzoyl)-piperazine-1-carboxylic acid [4-(morpholine-4-carbonyl)-phenyl]-amide] | – |
| 0.101 to 1 | > 60 | NC(=O)c1ccc(NC(=O)N2CCN(C(=O)c3cccc(F)c3)CC2)cc1 [Compound 105, 4-(3-Fluoro-benzoyl)-piperazine-1-carboxylic acid (4-carbamoyl-phenyl)-amide] | – |
| 0.101 to 1 | > 60 | O=C(Nc1cccc(NC(=O)N2CCN(C(=O)c3cccc(F)c3)CC2)c1)c1ccc[n+]([O-])c1 [Compound 109, 4-(3-Fluoro-benzoyl)-piperazine-1-carboxylic acid {3-[(1-oxy-pyridine-3-carbonyl)-amino]-phenyl}-amide] | – |
| 0.101 to 1 | – | O=C(Nc1cccc(-c2ncn[nH]2)c1)N1CCN(C(=O)c2cccc(F)c2)CC1 [Compound 159, 4-(3-Fluoro-benzoyl)-piperazine-1-carboxylic acid [3-(2H-[1,2,4]triazol-3-yl)-phenyl]-amide] | – |
| 0.101 to 1 | – | NC(=O)c1cc(NC(=O)N2CCN(C(=O)c3cccc(F)c3)CC2)ccc1F [Compound 160, 4-(3-Fluoro-benzoyl)-piperazine-1-carboxylic acid (3-carbamoyl-4-fluoro-phenyl)-amide] | – |
| 0.101 to 1 | – | O=C(Nc1ccc(F)c(-c2ncn[nH]2)c1)N1CCN(C(=O)c2cccc(F)c2)CC1 [Compound 161, 4-(3-Fluoro-benzoyl)-piperazine-1-carboxylic acid [4-fluoro-3-(2H-[1,2,4]triazol-3-yl)-phenyl]-amide] | – |
| 0.011 to 0.1 | – | CC(C)c1noc(-c2cccc(NC(=O)N3CCN(C(=O)c4cccc(F)c4)CC3)c2)n1 [Compound 162, 4-(3-Fluoro-benzoyl)-piperazine-1-carboxylic acid [3-(3-isopropyl-[1,2,4]oxadiazol-5-yl)-phenyl]-amide] | – |
| 0.011 to 0.1 | – | CC(C)c1noc(-c2cc(NC(=O)N3CCN(C(=O)c4cccc(F)c4)CC3)ccc2F)n1 [Compound 163, 4-(3-Fluoro-benzoyl)-piperazine-1-carboxylic acid [4-fluoro-3-(3-isopropyl-[1,2,4]oxadiazol-5-yl)-phenyl]-amide] | – |
| 0.011 to 0.1 | – | O=C(Nc1ccc(C(F)(F)F)cc1)N1CCN(C(=O)c2ccccc2)CC1 [Compound 164, 4-Benzoyl-piperazine-1-carboxylic acid (4-trifluoromethyl-phenyl)-amide] | – |
| 0.101 to 1 | – | O=C(Nc1ccc(C(F)(F)F)cc1)N1CCN(C(=O)c2cccc(Cl)c2)CC1 [Compound 165, 4-(3-Chloro-benzoyl)-piperazine-1-carboxylic acid (4-trifluoromethyl-phenyl)-amide] | – |
| 0.101 to 1 | – | O=C(Nc1cccc(Nc2ccccc2)c1)N1CCN(C(=O)c2cccc(F)c2)CC1 [Compound 166, 4-(3-Fluoro-benzoyl)-piperazine-1-carboxylic acid (3-phenylamino-phenyl)-amide] | – |

| IC50 [1, 3] [µM] | half-life [2] [min] | Compound | other results |
| --- | --- | --- | --- |
| 0.101 to 1 | – | O=C(Nc1cccc(Nc2ccc(F)cc2)c1)N1CCN(C(=O)c2cccc(F)c2)CC1 [Compound 167, 4-(3-Fluoro-benzoyl)-piperazine-1-carboxylic acid [3-(4-fluoro-phenylamino)-phenyl]-amide] | – |
| – | – | O=C(Nc1ccc(F)nc1)c1cccc(C(=O)N2CCN(C(=O)Nc3ccc(F)cc3)CC2)c1 [Compound XVIII, 4-[3-(6-Fluoro-pyridin-3-ylcarbamoyl)-benzoyl]-piperazine-1-carboxylic acid (4-fluoro-phenyl)-amide, reference compound] | IC50 [1, 4]: 19.5 µM |
| – | – | O=C(Nc1ccc(F)cc1)N1CCN(C(=O)c2cccc(NS(=O)(=O)c3ccccc3)c2)CC1 [Compound XX, 4-(3-Benzenesulfonylamino-benzoyl)-piperazine-1-carboxylic acid (4-fluoro-phenyl)-amide, reference compound] | IC50 [1, 4]: 19.6 µM |
| – | – | NC(=O)c1ccccc1C(=O)N1CCN(C(=O)Nc2ccc(F)cc2)CC1 [Compound XXI, 4-(2-Carbamoyl-benzoyl)-piperazine-1-carboxylic acid (4-fluoro-phenyl)-amide, reference compound] | IC50 [1, 4]: 16.8 µM |
| – | – | O=C(Nc1ccc(F)cc1)N1CCN(C(=O)c2ccccc2CO)CC1 [Compound XXIII, 4-(2-Hydroxymethyl-benzoyl)-piperazine-1-carboxylic acid (4-fluoro-phenyl)-amide] | IC50 [1]: 16.2 µM |
| – | – | COC(=O)c1ccccc1C(=O)N1CCN(C(=O)Nc2ccc(F)cc2)CC1 [XIII, 2-[4-(4-Fluoro-phenylcarbamoyl)-piperazine-1-carbonyl]-benzoic acid methyl ester, reference compound] | IC50 [1, 4]: 28.2 µM |
| – | – | O=C(Nc1ccc(F)cc1)N1CCN(C(=O)c2ccccc2Oc2ccccc2)CC1 [XIV, 4-(2-Phenoxy-benzoyl)-piperazine-1-carboxylic acid (4-fluoro-phenyl)-amide, reference compound] | IC50 [1, 4]: 180 µM |
| – | > 60 | O=C(Nc1ccc(F)cc1)N1CCN(C(=O)c2cccc(F)n2)CC1 [XXIII, 4-(6-Fluoro-pyridine-2-carbonyl)-piperazine-1-carboxylic acid (4-fluoro-phenyl)-amide] | – |
| – | 31.4 | O=C(Nc1ccc(N2CCOCC2)nc1)N1CCN(Cc2cccc(F)c2)CC1 [XXIV, 4-(3-Fluoro-benzyl)-piperazine-1-carboxylic acid (6-morpholin-4-yl-pyridin-3-yl)-amide] | – |
| – | 12.1 | O=C(Nc1ccc(F)cc1)N1CCN(Cc2cccc3c2OC(F)(F)O3)CC1 [XXIX, 4-(2,2-Difluoro-benzo[1,3]dioxol-4-ylmethyl)-piperazine-1-carboxylic acid (4-fluoro-phenyl)-amide] | – |
| – | 27.6 | O=C(Nc1ccc(N2CCOCC2)nc1)N1CCN(Cc2ccccc2)CC1 [XXV, 4-Benzyl-piperazine-1-carboxylic acid (6-morpholin-4-yl-pyridin-3-yl)-amide] | – |
| – | 21.9 | O=C(Nc1ccc(F)cc1)N1CCN(Cc2ccccc2O)CC1 [XXVI, 4-(2-Hydroxy-benzyl)-piperazine-1-carboxylic acid (4-fluoro-phenyl)-amide] | – |
| – | 20.9 | O=C(Nc1ccc(N2CCNCC2)c(F)c1)N1CCN(Cc2cccc(F)n2)CC1 [XXVII, 4-(6-Fluoro-pyridin-2-ylmethyl)-piperazine-1-carboxylic acid (3-fluoro-4-piperazin-1-yl-phenyl)-amide] | – |
| – | 15.5 | O=C(Nc1ccc(N2CCOCC2)nc1)N1CCN(Cc2cc(F)cc(F)c2)CC1 [XXVIII, 4-(3,5-Difluoro-benzyl)-piperazine-1-carboxylic acid (6-morpholin-4-yl-pyridin-3-yl)-amide] | – |
| – | 10.6 | O=C(Nc1ccc(F)cc1)N1CCN(Cc2cccc(F)c2)CC1 [XXX, 4-(3-Fluoro-benzyl)-piperazine-1-carboxylic acid (4-fluoro-phenyl)-amide] | – |
| – | 4.4 | Cc1ccccc1CN1CCN(C(=O)Nc2ccc(F)cc2)CC1 [XXXI, 4-(2-Methyl-benzyl)-piperazine-1-carboxylic acid (4-fluoro-phenyl)-amide] | – |

| Compound | IC50 [1, 3] [µM] | half-life [2] [min] | other results |
| --- | --- | --- | --- |
| 4-(2-Fluoro-4-{[4-(3-fluoro-benzoyl)-piperazine-1-carbonyl]-amino}-phenyl)-piperazine-1-carboxylic acid isopropyl ester [Compound 50] | 0.011 to 0.1 | – | Mouse t½ [2]: >60 min |
